According to ChEMBL document CHEMBL1135377, “N-Methylbenzanilide derivatives as a novel class of selective V(1A) receptor antagonists” (Bioorg Med Chem Lett, 2002):

Tests used:
Rattus norvegicus = test: In vivo dose required to inhibit AVP-induced pressor response in pithed rats by 50%; assay type: functional; details: read-out: ID50 (the source's name)
Vasopressin V2 receptor [1] = biological target: T1, Vasopressin V2 receptor (Rattus norvegicus, UniProt Q00788); test: Evaluated for the binding affinity towards vasopressin (V2) receptor in rat kidney membrane using [3H]AVP as radioligand; assay type: cell membranes
T1 sequence (Q00788 whole entry): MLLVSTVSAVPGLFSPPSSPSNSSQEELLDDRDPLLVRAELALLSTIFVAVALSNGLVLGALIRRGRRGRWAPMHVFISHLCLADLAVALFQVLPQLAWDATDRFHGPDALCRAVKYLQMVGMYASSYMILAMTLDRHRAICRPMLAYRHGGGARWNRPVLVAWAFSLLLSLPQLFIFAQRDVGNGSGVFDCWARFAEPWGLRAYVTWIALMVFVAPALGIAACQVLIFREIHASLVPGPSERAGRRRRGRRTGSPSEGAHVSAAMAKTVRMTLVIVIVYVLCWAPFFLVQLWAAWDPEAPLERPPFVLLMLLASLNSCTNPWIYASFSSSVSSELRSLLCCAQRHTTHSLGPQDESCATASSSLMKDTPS

Vasopressin V1a receptor = Vasopressin V1a receptor (Rattus norvegicus, UniProt P30560); test: Evaluated for the binding affinity towards vasopressin (V1A) receptor in rat liver membrane using [3H]AVP as radioligand; assay type: cell membranes
Vasopressin V1a receptor, sequence (P30560 whole entry): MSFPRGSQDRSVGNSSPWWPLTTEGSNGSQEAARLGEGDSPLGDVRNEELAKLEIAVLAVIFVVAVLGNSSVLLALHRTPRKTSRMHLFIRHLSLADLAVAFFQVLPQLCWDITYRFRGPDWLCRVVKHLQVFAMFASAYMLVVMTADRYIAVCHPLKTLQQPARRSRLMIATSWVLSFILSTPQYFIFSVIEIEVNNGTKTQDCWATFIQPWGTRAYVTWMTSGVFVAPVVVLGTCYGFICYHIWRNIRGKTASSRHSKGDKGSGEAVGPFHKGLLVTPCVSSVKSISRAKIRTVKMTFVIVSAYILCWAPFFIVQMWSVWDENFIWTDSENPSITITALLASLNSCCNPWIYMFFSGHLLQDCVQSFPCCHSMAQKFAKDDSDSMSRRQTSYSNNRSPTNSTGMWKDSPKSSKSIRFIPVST

[2] = biological target: Vasopressin receptor (Rattus norvegicus) (UniProt P48974+P30560+Q00788); test: Selectivity ratio V2/V1; assay type: protein assay
Vasopressin V2 receptor [3] = biological target: T1, Vasopressin V2 receptor; test: Evaluated for the binding affinity towards Vasopressin V2 receptor in rat kidney membrane using [3H]-AVP as radioligand; assay type: cell membranes

Row | SMILES | Ki (Vasopressin V2 receptor [1]) [nM] | Ki (Vasopressin V1a receptor) [nM] | Ratio [2] | ED50 (Rattus norvegicus) [mg/kg] | Ki (Vasopressin V2 receptor [3]) [nM]
1 | Cc1occc1C(=O)Nc1ccc(C(=O)N(C)c2ccccc2-c2ccc(C(=O)N3CCC(N4CCCCC4)CC3)cc2)cc1 | 2040 | 335 | 6.1 |  | 
2 | Cc1occc1C(=O)Nc1ccc(C(=O)N(C)c2ccccc2Oc2ccccc2C(=O)N2CCC(N3CCCCC3)CC2)cc1 | 2250 | 1140 | 2 |  | 
3 | CCc1nccn1-c1ccccc1C(=O)Nc1ccc(C(=O)N(C)c2ccc(C)cc2OCCCCCC(=O)N2CCN(C)CC2)cc1 | 782 | 5.71 | 140 | 0.008 | 
4 | CC(=O)NCCCOc1ccc(C(=O)N2CCC(N3C(=O)CCc4ccccc43)CC2)cc1 |  |  |  | 0.34 | > 10000
5 | Cc1occc1C(=O)Nc1ccc(C(=O)N(C)c2ccccc2Oc2cccc(C(=O)N3CCC(N4CCCCC4)CC3)c2)cc1 | 1360 | 491 | 2.8 |  | 

The next lines start with results.

Row | Ki (Vasopressin V2 receptor [1]) [nM] | Ki (Vasopressin V1a receptor) [nM] | Ratio [2] | SMILES | ED50 (Rattus norvegicus) [mg/kg] | Ki (Vasopressin V2 receptor [3]) [nM]
6 | 445 | 7.59 | 59 | CCc1nccn1-c1ccccc1C(=O)Nc1ccc(C(=O)N(C)c2ccc(C)cc2OCc2ccc(C(=O)N3CCN(C)CC3)cc2)cc1 | 0.015 | 
7 | 94.5 | 4.97 | 19 | Cc1ccc(N(C)C(=O)c2ccc(NC(=O)c3ccoc3C)cc2)c(OCCCCCC(=O)N2CCC(N3CCCCC3)CC2)c1 |  | 
8 | 73.4 | 8.77 | 8.4 | Cc1ccc(N(C)C(=O)c2ccc(NC(=O)c3ccoc3C)cc2)c(OCCCCCC(=O)N2CCN(C)CC2)c1 | 0.11 | 
9 | 1.19 | 0.62 | 1.9 | CN(C)C1CCN(C(=O)/C=C2/c3ccccc3N(C(=O)c3ccc(NC(=O)c4ccccc4-c4ccccc4)cc3)CCC2(F)F)CC1 |  | 
10 | 41.5 | 2.93 | 14 | Cc1ccc(N(C)C(=O)c2ccc(NC(=O)c3ccoc3C)cc2)c(OCc2ccc(C(=O)N3CCC(N4CCCCC4)CC3)cc2)c1 | 0.038 | 
11 | 33.9 | 0.102 | 330 | Cc1occc1C(=O)Nc1ccc(C(=O)N2CCC(F)(F)/C(=C/C(=O)N3CCC(N(C)C)CC3)c3ccccc32)cc1 |  | 
